Article PMC12529164, “Design, Synthesis, Structure–Activity Relationships, and Preliminary Anticancer Properties of Menthol-Modified Coumarin Esters and 3,4-Dihydrocoumarin Derivatives” (ACS Omega, 2025)

Experiments:
Type in all cases: cell-based, human
MDA-MB-231 = assay: MTT cytotoxicity assay
In short: (§1)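 ATCC lines grown in 10% FBS medium (RPMI 1640 for PC3, MEM for SW480/SW620, DMEM for MDA-MB-231) at 37 °C/5% CO2. Cells seeded at 1 × 10^4 per well, exposed to compounds for 72 h; viability read by MTT.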

PC3 [1] = assay: MTT cytotoxicity assay
In short: as §1

Trypan blue assay = conditions: human, HaCaT cells, compound at IC50, 72 h, mean
Method: (§2) The total cell count was assessed by trypan blue exclusion dye assay using automated cell counter (Countess Invitrogen). Untreated cells were used as the control. Each experiment was repeated 5 times.

HaCaT = assay: Trypan blue assay; conditions: compound at IC50, 72 h
Method: as §2

PC3 [2] = assay: Trypan blue assay; conditions: PC3, compound at IC50, 72 h
Method: as §2

SW480 = assay: Trypan blue assay; conditions: SW480, compound at IC50, 72 h
Method: as §2

SW620 = assay: Trypan blue assay; conditions: SW620, compound at IC50, 72 h
Method: as §2

[3] = SI = IC50 for normal cell line (HaCaT)/IC50 cancer cell line

CC(C)[C@@H]1CC[C@@H](C)C[C@H]1OC(=O)C1C(=O)Oc2ccccc2C1P(=O)(c1ccccc1)c1ccccc1 (mixture of isomers) [Compound 4a, (1R,2S,5R)-2-Isopropyl-5-methylcyclohexyl-4-(diphenylphosphoryl)-2-oxochromane-3-carboxylate]
IC50 (MDA-MB-231; MDA-MB-231, MTT, 72 h, human breast adenocarcinoma): 25.3 ± 4.59 µM | SI MDA-MB-231 (MDA-MB-231; [3]): 0.60 | IC50 (PC3 [1]; PC-3, MTT, 72 h, human metastatic prostate cancer): 9.8 ± 2.02 µM | SI PC3 (PC3 [1]; [3]): 1.53 | viability at 72 h (Trypan blue assay): 96% | cell number (HaCaT; mean): 4.26 x106 | reduction of number of cells (HaCaT; vs control): 31.9% | cell number (PC3 [2]; mean): 2.5 x106 | viability (%) (PC3 [2]; mean): 94.33% | reduction of number of live cells (PC3 [2]; vs control): 62.1% | cell number (SW480; mean): 0.72 x106 | viability (%) (SW480; mean): 93.66% | reduction of number of live cells (SW480; vs control): 79.9% | cell number (SW620; mean): 1.86 x106 | viability (%) (SW620; mean): 98% | reduction of number of live cells (SW620; vs control): 47.6%
